This experiment deals with T1, human KSP motor domain (KSP(367H)) (Homo sapiens, UniProt P52732).
T1 construct: were used to amplify the motor domain and the neck linker region; made in house; host or cells: E. coli BL21 (DE3), pRSETa vector
T1 sequence (P52732 18-359 limits assumed): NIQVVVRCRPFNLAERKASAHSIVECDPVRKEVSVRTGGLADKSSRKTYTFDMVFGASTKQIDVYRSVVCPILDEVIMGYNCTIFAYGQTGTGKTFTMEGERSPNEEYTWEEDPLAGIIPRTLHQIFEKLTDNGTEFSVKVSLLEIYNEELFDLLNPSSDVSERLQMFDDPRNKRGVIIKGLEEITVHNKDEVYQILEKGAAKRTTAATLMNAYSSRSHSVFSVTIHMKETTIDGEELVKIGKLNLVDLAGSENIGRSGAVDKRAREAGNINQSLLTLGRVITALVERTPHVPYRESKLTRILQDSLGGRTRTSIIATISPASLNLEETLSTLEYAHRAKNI
Nature of the experiment: Kinesin ATPase In Vitro Assay. In kind it is biochemical. Conditions: kinesin motor domain with microtubules, 1 mM ATP, 23° C.; free phosphate by quinaldine red/ammonium molybdate, absorbance 540 nm. The text has this: I. Kinesin ATPase In Vitro Assay
Cloning and Expression of Human Poly-Histidine Tagged KSP Motor Domain (KSP(367H))
Plasmids for the expression of the human KSP motor domain construct were cloned by PCR using a pBluescript full length human KSP construct (Blangy et al., Cell, vol.83, pp 1159–1169, 1995) as a template. The N-terminal primer 5′-[…] (SEQ.ID.NO.: 1) and the C-terminal primer 5′-[…] […] (SEQ.ID.NO.: 2) were used to amplify the motor domain and the neck linker region. The PCR products were digested with AseI and XhoI, ligated into the NdeI/XhoI digestion product of pRSETa (Invitrogen) and transformed into E. coli BL21 (DE3).
Cells were grown at 37° C. to an OD600 of 0.5. […]
The kinesin motor domain is incubated with microtubules, 1 mM ATP (1:1 MgCl2: Na-ATP), and compound at 23° C. in buffer containing 80 mM K-HEPES (pH 7.0), 1 mM EGTA, 1 mM DTT, 1 mM MgCl2, and 50 mM KCl. […] Free phosphate from the ATP hydrolysis reaction is measured via a quinaldine red/ammonium molybdate assay by adding 150 μl of quench C buffer containing a 2:1 ratio of quench A:quench B. Quench A contains 0.1 mg/ml quinaldine red and 0.14% polyvinyl alcohol; quench B contains 12.3 mM ammonium molybdate tetrahydrate in 1.15 M sulfuric acid. The reaction is incubated for 10 minutes at 23° C., and the absorbance of the phospho-molybdate complex is measured at 540 nm.

The structures appear in SMILES notation. A value given as a limit tells only on which side of the number the result lay.

The IC50 is the concentration at which inhibition is half-maximal. Lower therefore signals inhibition by little substance. Turning to `CCC(c1nc2c(c(=O)n1Cc1ccccc1)CCC2)N(CCN(C)C)C(=O)c1ccc(Br)cc1` (stereo not shown) [1-5, N-[1-(3-benzyl-4-oxo-4,5,6,7-tetrahydro-3H-cyclopenta[d]pyriinidin-2-yl)propyl]-4-bromo-N-[2-(dimethylamino)ethyl]benzamide], the IC50 was at most 50 µM.

Source of the values: patent US7192949B2, “Substituted bicyclic pyrimidinones as a mitotic kinesin KSP inhibitors” (Merck & Co., Inc., priority 2001, dated 2007).
